Data as given in PMC11795524, “Melanin-Binding-Based Discovery of Topically Instilled Carbonic Anhydrase Inhibitors for Targeted Delivery and Prolonged Action in the Eye” (Molecular Pharmaceutics, 2025).

Key:
[1] = test system: albino rats; parameters: method as in PMID 25481859; details: cited from earlier work
[2] = test system: albino rabbits (New Zealand White); assay: IOP study in albino rabbits after single eye drop; type: in vivo, rabbit; details: for AUC0-last ± SD in albino rabbits (IOP decrease vs time): single 25 μL eye drop, CAI 0.5 or 1.0%, dorzolamide 2%, n = 5
Description: (§1) Five 3–5 months old albino (New Zealand White, all females) and five 3–6 months old pigmented rabbits (Chinchilla Bastard, 1 male and 4 females) were purchased from Charles River Laboratories, UK and Germany, respectively. Prior to the experiments, the rabbits were habituated to handling, and the baseline values of IOP were measured. During the experiments, rabbits weighed 2.4–4.0 kg.
First, stock solutions of CAIs (250 mg/mL) in dimethyl sulfoxide (Sigma-Aldrich, Germany) were prepared. These stock solutions were diluted with PBS (pH 7.4) to obtain 1 mg/mL (0.1%) or 10 mg/mL (1%) solutions. Water-solubility of the compounds was enhanced with 2-hydroxypropyl-β-cyclodextrin (Sigma-Aldrich, Germany) (Table 1).
(§2) The CAI solutions were tested in albino rabbits (eye drops of 0.1, and 0.5 or 1.0%) and in pigmented rabbits (0.5 or 1.0%). The novel CAI concentrations in solutions were determined based on the drug solubility with the aim to load the highest possible drug concentration to the single eye drop.
(§3) The IOP levels in the rabbits were measured with a tonometer (Tonometer Pro, Icare Finland Ltd.). After baseline IOP measurements, a single eye drop (25 μL) was applied to the left eye, whereas the right eye was not treated. After eye drop instillation, the eyelids were kept open manually for 1 min. The IOP was measured from both eyes of the rabbits at 0.5, 1, 2, 3, 4, 5, 6, 7, and 8 h after eye drop instillation. In the case of the pigmented rabbits, the measurements were continued until 10 h postinstillation, and further until the IOP had returned to the normal baseline.
(§4) The CAIs were tested in the same rabbits to minimize interindividual data variation. Washout periods of at least 3 days were used between instillation of different compounds. The experiments started always at 8 a.m. to eliminate bias due to diurnal IOP fluctuation. At each time point, the pressure was measured three times with the same eye, and the average values were calculated and used in data analysis.

[3] = In vitro melanin binding by microscale thermophoresis / initial fluorescence (Monolith NT.115 pico); details: for Melanin binding classification: class by Kd; for Kd: melanin nanoparticles 0.5 mg/mL, IF or MST mode, 68% confidence, read-out: Kd ± confidence (melanin binding)
Text: Melanin binding of the CAI-II compounds was studied with a Monolith NT.115 pico (NanoTemper Technologies GmbH, Munich, Germany) device using the method of […] et al. […] Otherwise, normalized fluorescence signals and the ratio of relative fluorescence after heating (MST mode) were used. The MST software was used in expert mode to allow heating for 30 s. […] As ligand autofluorescence may interfere with the assay, their autofluorescence values were pretested with the detector used in experiment (nanoblue or pico-red). Fluorescence of the ligand should be below 20% of melanin fluorescence. Sample aggregation and adsorption to the capillaries were used also as exclusion criteria.

[4] = test system: albino rabbits; parameters: method as in PMID 31515057, PMID 34274401; details: cited from earlier work
[5] = test system: pigmented rabbits (Chinchilla Bastard); assay: IOP study in pigmented rabbits after single eye drop; type: in vivo, rabbit; details: for ratio (AUCpigm/AUCalbino) of IOP response: pigmented vs albino rabbits
Description: as §1
First, stock solutions of CAIs (250 mg/mL) in dimethyl sulfoxide (Sigma-Aldrich, Germany) were prepared. These stock solutions were diluted with PBS (pH 7.4) to obtain 1 mg/mL (0.1%) or 10 mg/mL (1%) solutions.
as §2
Baseline IOP of pigmented rabbits was raised with two intravitreal triamcinolone acetonide injections (Triesence 40 mg/mL, Novartis Finland Ltd.) with 1 week interval to each eye. This method[25],[26] may induce ocular hypertension even up to 60 days in rabbits.[25]
The rabbits were anesthetized with 0.4 mg/kg, s.c. medetomidine (Domitor vet 1 mg/mL, Orion Pharma, Espoo, Finland) and 20 mg/kg s.c. ketamine (Ketaminol vet 50 mg/mL, Pfizer Oy Animal Health, Espoo, Finland). Mydriasis was induced with topical tropicamide eyedrops (Oftan Tropicamid 5 mg/mL, Santen Pharmaceutical Co., Ltd., Tampere, Finland) and the ocular surface was anesthetized with oxybuprocaine eye drop (Oftan Obucain 4 mg/mL, Santen Pharmaceutical Co., Ltd., Tampere, Finland). Thereafter, intravitreal injection of triamcinolone acetonide (100 μL) was given with a 31G needle and syringe. After injection, the eyes were moisturized with carbomer gel (Viscotears 2 mg/g, Dr. Gerhard Mann chem.-pharm. Fabrik GmbH, Berlin, Germany) and the anesthesia was antagonized with 1 mg/kg atipamezole s.c. (Antisedan vet 5 mg/mL, Orion Pharma, Espoo, Finland).
After the second injection, IOP was allowed to settle for 10 days before the experiments were performed. […] Induction of ocular hypertension is presented in Appendix Figure 3. The IOP-lowering effects of the molecules were investigated sequentially, each test initiating once baseline IOP levels was attained.
as §3, §4

[6] = test system: pigmented rabbits; parameters: method as in PMID 1263134, PMID 955835; details: topical eye drops; cited from earlier work
[7] = test system: albino rabbits; parameters: method as in PMID 1263134, PMID 955835; details: topical eye drops; cited from earlier work
[8] = biological target: recombinant human carbonic anhydrase II; parameters: method as in earlier work; details: stopped flow kinetics protocol; read-out: Ki against hCA II; cited from earlier work
[9] = test system: pigmented rabbits; parameters: method as in PMID 37130851; details: intracameral injections; cited from earlier work
[10] = topical, rabbits; cited from earlier work

| SMILES | Melanin binding classification [3] | Kd [3] | AUC0-last ± SD in albino rabbits (IOP decrease vs time) [2] | Ki [8] | ratio (AUCpigm/AUCalbino) of IOP response [5] | other results |
| --- | --- | --- | --- | --- | --- | --- |
| CCN[C@H]1C[C@H](C)S(=O)(=O)c2sc(S(N)(=O)=O)cc21 [Dorzolamide, reference compound] | intermediate (intermediate (65–650 μM)) | – | 15.55 ± 10.64 mmHg x h | – | – | duration of IOP-responses [1]: ~4 h; duration of IOP decrease ([2]; albino rabbits, single eye drop (0.5–1% CAI, 2% dorzolamide)): < 8 h; duration of IOP-responses [4]: ~6 h; IOP reduction in normotensive pigmented rabbits ([5]; Chinchilla Bastard rabbits with normal (low) ocular pressure, before triamcinolone): no IOP reduction |
| CN1[C@@H]2CC[C@H]1C[C@@H](OC(=O)C(CO)c1ccccc1)C2 (some centres unmarked) [Atropine] | – | 758 ± 848 µM | – | – | – | duration of mydriatic effect [6]: > 96 h; duration of mydriatic effect [7]: 43.5 h |
| Brc1c(NC2=NCCN2)ccc2nccnc12 [Brimonidine, reference compound] | high (high (<65 μM)) | 25 µM | – | – | – | duration of IOP decrease [9]: 7 days |
| CCN[C@H]1CN(CCCOC)S(=O)(=O)c2sc(S(N)(=O)=O)cc21 [Brinzolamide] | – | – | – | – | – | absolute ocular bioavailability [10]: 0.10% |

More lines, main results first:

| Melanin binding classification [3] | Kd [3] | SMILES | AUC0-last ± SD in albino rabbits (IOP decrease vs time) [2] | Ki [8] | ratio (AUCpigm/AUCalbino) of IOP response [5] | other results |
| --- | --- | --- | --- | --- | --- | --- |
| low (low binders (>650 μM)) | – | NS(=O)(=O)c1ccc(-n2ncc(N3CCOCC3)cc2=O)cc1 [A22] | 10.50 ± 8.73 mmHg x h | 0.55 ± 0.01 nM | 8.4 | AUC0-last ± SD in pigmented rabbits (IOP decrease vs time) ([5]; hypertensive (triamcinolone) rabbits, single 25 μL eye drop, CAI 0.5 or 1.0%, dorzolamide 2%, n = 5): 88.10 ± 63.04 mmHg × h |
| intermediate (intermediate (65–650 μM)) | 176 ± 159 µM | NS(=O)(=O)c1ccc(-n2ncc(N3CCCCCC3)cc2=O)cc1 [A12] | 13.80 ± 10.06 mmHg x h | 0.06 ± 0.001 nM | 9.0 | – |
